# In paper PMC6956158, “In Vitro and In Vivo Assessment of Metabolic Drug Interaction Potential of Dutasteride with Ketoconazole” (Pharmaceutics, 2019):
# Where two headings read alike, the source gives them in different places.
# Tests used:
# type-1 5AR = test system: type-1 5AR; set-up: method as in PMID 16964191, PMID 16719800; settings: previous in vitro studies; cited from earlier work
# [1] = cited from earlier work
# [2] = In vivo pharmacokinetic study in rats, oral DUT without or with KET; set-up: species or system rat; settings: for AUC(0-t) / Cmax: po, 5 mg/kg
# Excerpt: The animal experiment protocols used in the present study were approved by the Pusan National University-Institutional Animal Care and Use Committee for scientific care and ethical procedures (Busan, Korea; approval date: 01/05/2018; approval number: PNU-2018-1848). Male Sprague–Dawley rats (8-week-old; approximately 250 g) were purchased from DBL Co., Ltd. (Incheon, Korea). The rats were acclimatized in a clean room of the Laboratory Animal Center of Pusan National University (Busan, Korea) for 1 week. Then, they were fasted for 12 h prior to the pharmacokinetic experiment and then anesthetized by intramuscular injection of Zoletil at a dose of 20 mg/kg. The femoral vein and artery of the rats were cannulated with a polyethylene tube (BD Medical; Franklin Lakes, NJ, USA). At approximately 4–6 h after the surgery for cannulation, an intravenous dose of DUT (2.5 mg/kg) simultaneously with or without intravenous KET ([…]) was administered to the rats. Drugs were dissolved in a vehicle consisting of dimethyl sulfoxide, ethanol, and polyethylene glycol 400 at a ratio of 10:5:85 (v/v/v). Blood (approximately 200 μL) was collected in heparin pre-treated microcentrifuge tubes via the femoral artery at 0, 1, 5, 15, 30, 60, 120, 180, 240, 360, 480, and 1200 min after the intravenous dose and at 0, 5, 15, 30, 60, 120, 150, 180, 240, 360, 480, and 1200 min after the oral dose. Following centrifugation of the blood samples at 3000× g at 4 °C for 10 min [19], 100 μL aliquots of plasma were stored at −80 °C.
# The half maximal inhibitory concentration (IC50) of KET for the inhibition of the DUT metabolism was determined by the nonlinear regression analysis (GraphPad Prism ver. 5.01; GraphPad Software Inc., San Diego, CA, USA) based on the following Hill equation: y = Min + Max−Min/1 + (x/IC50)^-P where Max and Min are the initial and final y value, respectively, and the exponent P represents the Hill coefficient. Peak plasma concentration (Cmax) and time to reach Cmax (Tmax) were read directly from the observed data. Non-compartmental analysis was conducted to estimate pharmacokinetic parameters such as total area under plasma concentration versus time curve from time zero to time of last sampling (AUClast), total area under plasma concentration versus time curve from time zero to infinity (AUCinf), total plasma clearance (CL), volume of distribution at steady state (Vss), and terminal half-life (t1/2) using the NCA200 and 201 models of WinNonlin ver. 3.1 (Certara USA Inc., Princeton, NJ, USA).
# [3] = NADPH-dependent metabolism (disappearance) of DUT in human liver microsomes; format: in vitro ADME; settings: HLM
# Protocol: In vitro metabolism studies in RLM and HLM were conducted as previously reported with slight modifications. To investigate the NADPH-dependent metabolism (via phase I enzymes including CYPs) of DUT in RLM and HLM, the disappearance of DUT at various concentrations ranging from 1 to 100 μM in the presence of NADPH was determined in RLM and HLM. The substrate (DUT) concentration ([S]; μM) versus the initial metabolic rate (V; pmol/min/mg protein) data were interpreted based on the Michaelis–Menten kinetics, and relevant parameters were estimated by nonlinear regression analysis (GraphPad Prism ver. 5.01; GraphPad Software, San Diego, CA, USA) based on the following Michaelis–Menten equation: V = Vmax × [S]/Km + [S] where Vmax and Km are the maximal metabolic rate and Michaelis–Menten constant, respectively. The intrinsic metabolic clearance (CLint) was calculated by dividing Vmax by Km. The unbound Km (Km,u) was calculated as the Km multiplied by the unbound fraction in microsomes (fu,mic). The unbound CLint (CLint,u) was calculated as the CLint divided by the fu,mic.
# To investigate the metabolic interaction potential between DUT and KET, the disappearance of DUT (5 μM) in RLM and HLM was determined under the absence and presence of KET at various concentrations ranging from 1 to 5000 nM. A microsomal reaction mixture was prepared as follows (total volume: 0.2 mL): 1 mM NADPH, 10 mM MgCl2, substrate (DUT), and inhibitor (KET), RLM or HLM (1 mg/mL), and 50 mM phosphate buffer. […] The unbound fractions of DUT in rat plasma, RLM, human plasma, and HLM were measured using a rapid equilibrium dialysis (RED) device (Thermo Fisher Scientific, Inc., Waltham, MA, USA) as described in a previous study. […] The fraction unbound was calculated as the ratio of the drug concentrations in the “buffer” chamber to those in the “sample” chamber. The blood-to-plasma concentration ratio (RB) of DUT was determined as described previously. […] The concentrations of DUT in the plasma sample were determined by the validated HPLC analysis.
# [4] = male, Sprague-Dawley, rat, plasma, oral DUT 5 mg/kg with oral KET (20 mg/kg), n = 4
# [5] = male, Sprague-Dawley, rat, plasma, oral DUT 5 mg/kg, DUT alone, n = 4
compound,measurement,setting,value
"C[C@]12C=CC(=O)N[C@@H]1CC[C@@H]1[C@@H]2CC[C@]2(C)[C@@H](C(=O)Nc3cc(C(F)(F)F)ccc3C(F)(F)F)CC[C@@H]12 [DUT, Dutasteride]",more potent inhibition of type-1 5AR compared to finasteride,type-1 5AR,45 fold
same,"steady-state serum DUT concentration, median","[1]; healthy humans, 0.5 mg DUT once-daily for more than 6 months",38 ng/mL
same,terminal half-life,"[1]; humans, after reaching a steady state",approximately 5 weeks
same,unchanged DUT excreted in the urine,[1]; humans,trace amounts
same,concentration at 30 min,"[2]; male, Sprague-Dawley, rat, plasma sample collected at 30 min after oral DUT 5 mg/kg, representative chromatogram",276 ng/mL
same,Tmax,"[2]; male, Sprague-Dawley, rat, plasma, oral DUT 5 mg/kg, DUT alone, median (range), n = 4, read-out: Tmax (converted)",1 h
same,AUC(0-t),[2]; [4],6470 ng·h/mL
same,Cmax,[2]; [4],419 ± 27 ng/mL
same,AUC(0-t),[2]; [5],4580 ng·h/mL
same,Cmax,[2]; [5],289 ± 10 ng/mL
same,Tmax,"[2]; oral DUT 5 mg/kg with oral KET (20 mg/kg), median, n = 4",1 h
same,Vmax,"[3]; DUT 1 to 100 μM, NADPH",47.7 ± 6.3 pmol/min/mg protein
same,Km,"[3]; human, human liver microsomes, DUT 1 to 100 μM, NADPH",51.6 ± 7.3 µM
same,microsomal CLint,"[3]; human, human liver microsomes, Vmax divided by Km",0.928 ± 0.069 µL/min/mg
